Source: the OligoGym collection
HELM strings list units from the 5' end as sugar, base in round brackets, then linkage (d deoxyribose, r ribose, m 2'-O-methyl, p phosphodiester). [sp] = phosphorothioate linkage

How the values were obtained:
CDKN2B-AS1 [1] = test: HEK293-TLR8, 100 nM ASO, then resiquimod
CDKN2B-AS1 [2] = test: HEK293-TLR7, 100 nM ASO, then resiquimod

| Substance | TLR8 potentiation (NF-kB luciferase) (fold of resiquimod alone) (CDKN2B-AS1 [1]) | TLR7 signal (NF-kB luciferase) (% of resiquimod alone) (CDKN2B-AS1 [2]) |
| --- | --- | --- |
| RNA1{m(A)[sp].m(A)[sp].m(A)[sp].m(A)[sp].m(G)[sp].d(A)[sp].d(T)[sp].d(T)[sp].d(A)[sp].d(T)[sp].d(C)[sp].d(T)[sp].d(T)[sp].d(C)[sp].d(T)[sp].m(U)[sp].m(U)[sp].m(U)[sp].m(A)[sp].m(A)}$$$$ | 3.19 | 47.4 |
| RNA1{m(A)[sp].m(A)[sp].m(A)[sp].m(A)[sp].m(U)[sp].d(A)[sp].d(A)[sp].d(G)[sp].d(G)[sp].d(G)[sp].d(G)[sp].d(A)[sp].d(A)[sp].d(T)[sp].d(A)[sp].m(G)[sp].m(G)[sp].m(G)[sp].m(G)[sp].m(A)}$$$$ | 0.86 | 68.5 |
| RNA1{m(A)[sp].m(A)[sp].m(A)[sp].m(G)[sp].m(A)[sp].d(T)[sp].d(T)[sp].d(A)[sp].d(T)[sp].d(C)[sp].d(T)[sp].d(T)[sp].d(C)[sp].d(T)[sp].d(T)[sp].m(U)[sp].m(U)[sp].m(A)[sp].m(A)[sp].m(U)}$$$$ | 2.96 | 49.3 |
| RNA1{m(A)[sp].m(A)[sp].m(A)[sp].m(G)[sp].m(C)[sp].d(A)[sp].d(G)[sp].d(T)[sp].d(C)[sp].d(T)[sp].d(C)[sp].d(C)[sp].d(A)[sp].d(T)[sp].d(G)[sp].m(U)[sp].m(C)[sp].m(C)[sp].m(C)[sp].m(A)}$$$$ | 1.9 | 27.2 |
| RNA1{m(A)[sp].m(A)[sp].m(G)[sp].m(A)[sp].m(U)[sp].d(T)[sp].d(A)[sp].d(T)[sp].d(C)[sp].d(T)[sp].d(T)[sp].d(C)[sp].d(T)[sp].d(T)[sp].d(T)[sp].m(U)[sp].m(A)[sp].m(A)[sp].m(U)[sp].m(U)}$$$$ | 2.91 | 42.1 |
| RNA1{m(A)[sp].m(A)[sp].m(G)[sp].m(C)[sp].m(A)[sp].d(G)[sp].d(T)[sp].d(C)[sp].d(T)[sp].d(C)[sp].d(C)[sp].d(A)[sp].d(T)[sp].d(G)[sp].d(T)[sp].m(C)[sp].m(C)[sp].m(C)[sp].m(A)[sp].m(G)}$$$$ | 1.79 | 35.7 |
| RNA1{m(A)[sp].m(A)[sp].m(G)[sp].m(G)[sp].m(U)[sp].d(G)[sp].d(G)[sp].d(C)[sp].d(C)[sp].d(A)[sp].d(C)[sp].d(A)[sp].d(G)[sp].d(G)[sp].d(C)[sp].m(A)[sp].m(A)[sp].m(C)[sp].m(G)[sp].m(U)}$$$$ | 0.58 | 57.9 |
| RNA1{m(A)[sp].m(A)[sp].m(U)[sp].m(A)[sp].m(U)[sp].d(C)[sp].d(T)[sp].d(G)[sp].d(C)[sp].d(T)[sp].d(G)[sp].d(C)[sp].d(C)[sp].d(C)[sp].d(A)[sp].m(C)[sp].m(C)[sp].m(U)[sp].m(U)[sp].m(C)}$$$$ | 1.79 | 43.7 |
| RNA1{m(A)[sp].m(A)[sp].m(U)[sp].m(U)[sp].m(U)[sp].d(A)[sp].d(A)[sp].d(A)[sp].d(G)[sp].d(C)[sp].d(A)[sp].d(T)[sp].d(G)[sp].d(A)[sp].d(A)[sp].m(U)[sp].m(A)[sp].m(U)[sp].m(U)[sp].m(A)}$$$$ | 3.29 | 46.8 |
| RNA1{m(A)[sp].m(G)[sp].m(A)[sp].m(A)[sp].m(A)[sp].d(G)[sp].d(A)[sp].d(A)[sp].d(G)[sp].d(C)[sp].d(A)[sp].d(A)[sp].d(A)[sp].d(G)[sp].d(A)[sp].m(U)[sp].m(U)[sp].m(C)[sp].m(A)[sp].m(A)}$$$$ | 1.96 | 43 |
| RNA1{m(A)[sp].m(G)[sp].m(A)[sp].m(U)[sp].m(U)[sp].d(A)[sp].d(T)[sp].d(C)[sp].d(T)[sp].d(T)[sp].d(C)[sp].d(T)[sp].d(T)[sp].d(T)[sp].d(T)[sp].m(A)[sp].m(A)[sp].m(U)[sp].m(U)[sp].m(U)}$$$$ | 3.02 | 37.1 |
